Source: patent US20100317686A1, “N-HETEROCYCLIC-6-HETEROCYCLIC-IMIDAZO[1,2-a]PYRIDINE-2-CARBOXAMIDE DERIVATIVES, PREPARATION AND THERAPEUTIC USE THEREOF” (sanofi-aventis, priority 2008, published 2010)

What follows are compounds tested against T1, murine Nurr1 receptor (Mus musculus, UniProt Q06219) (assay: In vitro activity on N2A cells (Neuro-2A stably transfected with 8NBRE-luciferase reporter)). Conditions: N2A-8NBRE cells, 24 hours incubation with product.
T1 construct: a cell line (N2A) endogenously expressing the murine Nurr1 receptor; host or cells: Neuro-2A (N2A) mouse neuroblastoma cells stably transfected with 8NBRE-luciferase
Type: cell-based
Method: The activity of the compounds according to the invention was evaluated on a cell line (N2A) endogenously expressing the murine Nurr1 receptor and stably transfected with the NOT binding response element (NBRE) coupled to the luciferase reporter gene. The EC50 values are between 0.01 and 1000 nM. The tests were performed according to the procedure described hereinbelow.
The cell line Neuro-2A is obtained from a standard commercial source (ATCC). The clone Neuro-2A was obtained from a spontaneous tumour originating from a strain of albino mice A by R. J Klebe et al. This line Neuro-2A is then stably transfected with 8NBRE-luciferase. The N2A-8NBRE cells are cultured to the point of confluence in 75 cm^2 culture flasks containing DMEM supplemented with 10% foetal calf serum, 4.5 g/L of glucose and 0.4 mg/ml of geneticin. After culturing for one week, the cells are recovered with 0.25% trypsin for 30 seconds and then resuspended in DMEM without phenol red, containing 4.5 g/L of glucose and 10% Hyclone defatted serum, and placed in white, transparent-based 96-well plates. The cells are deposited at a rate of 60 000 per well in 75 μL for 24 hours before adding the products. The products are applied in 25 μL and incubated for a further 24 hours. On the day of measurement, an equivalent volume (100 μL) of Steadylite is added to each well, and the wells are then left for 30 minutes to obtain complete lysis of the cells and maximum production of the signal. The plates are then measured in a microplate luminescence counter, after having been sealed with an adhesive film. The products are prepared in the form of a 10^−2 M stock solution, and then diluted in 100% of DMSO. Each concentration of product is prediluted in culture medium before incubation with the cells thus containing 0.625% final of DMSO.

T1 sequence (Q06219 whole entry): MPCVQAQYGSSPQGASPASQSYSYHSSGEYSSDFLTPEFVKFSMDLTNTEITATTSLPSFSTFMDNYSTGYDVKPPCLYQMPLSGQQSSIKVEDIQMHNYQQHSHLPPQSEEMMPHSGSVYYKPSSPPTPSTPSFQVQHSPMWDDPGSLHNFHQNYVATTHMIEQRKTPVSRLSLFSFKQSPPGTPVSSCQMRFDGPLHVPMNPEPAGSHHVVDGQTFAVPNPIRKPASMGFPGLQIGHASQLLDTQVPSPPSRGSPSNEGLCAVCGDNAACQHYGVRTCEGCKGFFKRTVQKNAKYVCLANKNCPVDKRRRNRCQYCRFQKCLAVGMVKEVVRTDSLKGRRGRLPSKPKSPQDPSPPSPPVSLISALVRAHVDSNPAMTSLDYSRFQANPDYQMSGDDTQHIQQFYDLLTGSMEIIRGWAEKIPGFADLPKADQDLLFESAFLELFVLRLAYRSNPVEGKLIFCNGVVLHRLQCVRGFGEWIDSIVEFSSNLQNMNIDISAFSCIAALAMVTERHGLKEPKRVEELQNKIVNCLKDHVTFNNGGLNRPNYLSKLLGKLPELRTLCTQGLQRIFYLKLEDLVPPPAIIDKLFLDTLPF

EC50 [nM] | Compound
16 | Nc1cccc(-c2ccc3nc(C(=O)Nc4ccccn4)cn3c2)n1 [Compound 1, 6-(6-Aminopyridin-2-yl)-N-(pyridin-2-yl)imidazo[1,2-a]pyridine-2-carboxamide]
1.5 | O=C(Nc1ccccn1)c1cn2cc(-c3c[nH]cn3)ccc2n1 [Compound 2, 6-(1H-Imidazol-4-yl)-N-(pyridin-2-yl)imidazo[1,2-a]pyridine-2-carboxamide]
0.8 | O=C(Nc1nccs1)c1cn2cc(-c3ccccn3)ccc2n1 [Compound 7]
21 | O=C(Nc1cc[nH]n1)c1cn2cc(-c3ccccn3)ccc2n1 [Compound 10, N-(1H-Pyrazol-3-yl)-6-(pyridin-2-yl)imidazo[1,2-a]pyridine-2-carboxamide]
2 | O=C(Nc1ccon1)c1cn2cc(-c3ccc(CO)o3)ccc2n1 [Compound 22, 6-[5-(Hydroxymethyl)furan-2-yl]-N-(isoxazol-3-yl)imidazo[1,2-a]pyridine-2-carboxamide]
0.4 | O=C(Nc1cccc(F)n1)c1cn2cc(-c3ccoc3)ccc2n1 [Compound 36, N-(6-Fluoropyridin-2-yl)-6-(furan-3-yl)imidazo[1,2-a]pyridine-2-carboxamide]
1.5 | O=C(Nc1nncs1)c1cn2cc(-c3cc[nH]c3)ccc2n1 [Compound 51, 6-(1H-Pyrrol-3-yl)-N-(1,3,4-thiadiazol-2-yl)imidazo[1,2-a]pyridine-2-carboxamide]
1 | O=C(Nc1nccs1)c1cn2cc(-c3cc[nH]n3)ccc2n1 [Compound 56, 6-(1H-Pyrazol-3-yl)-N-(thiazol-2-yl)imidazo[1,2-a]pyridine-2-carboxamide]
5.3 | O=C(Nc1nncs1)c1cn2cc(-c3cc[nH]n3)ccc2n1 [Compound 58, 6-(1H-Pyrazol-3-yl)-N-(1,3,4-thiadiazol-2-yl)imidazo[1,2-a]pyridine-2-carboxamide]
